Target: T1, hERG (Kv11.1) potassium channel (Homo sapiens, UniProt Q12809)
T1 construct: gene KCNH2
Experiment: cell-based

T1 sequence (Q12809 whole entry): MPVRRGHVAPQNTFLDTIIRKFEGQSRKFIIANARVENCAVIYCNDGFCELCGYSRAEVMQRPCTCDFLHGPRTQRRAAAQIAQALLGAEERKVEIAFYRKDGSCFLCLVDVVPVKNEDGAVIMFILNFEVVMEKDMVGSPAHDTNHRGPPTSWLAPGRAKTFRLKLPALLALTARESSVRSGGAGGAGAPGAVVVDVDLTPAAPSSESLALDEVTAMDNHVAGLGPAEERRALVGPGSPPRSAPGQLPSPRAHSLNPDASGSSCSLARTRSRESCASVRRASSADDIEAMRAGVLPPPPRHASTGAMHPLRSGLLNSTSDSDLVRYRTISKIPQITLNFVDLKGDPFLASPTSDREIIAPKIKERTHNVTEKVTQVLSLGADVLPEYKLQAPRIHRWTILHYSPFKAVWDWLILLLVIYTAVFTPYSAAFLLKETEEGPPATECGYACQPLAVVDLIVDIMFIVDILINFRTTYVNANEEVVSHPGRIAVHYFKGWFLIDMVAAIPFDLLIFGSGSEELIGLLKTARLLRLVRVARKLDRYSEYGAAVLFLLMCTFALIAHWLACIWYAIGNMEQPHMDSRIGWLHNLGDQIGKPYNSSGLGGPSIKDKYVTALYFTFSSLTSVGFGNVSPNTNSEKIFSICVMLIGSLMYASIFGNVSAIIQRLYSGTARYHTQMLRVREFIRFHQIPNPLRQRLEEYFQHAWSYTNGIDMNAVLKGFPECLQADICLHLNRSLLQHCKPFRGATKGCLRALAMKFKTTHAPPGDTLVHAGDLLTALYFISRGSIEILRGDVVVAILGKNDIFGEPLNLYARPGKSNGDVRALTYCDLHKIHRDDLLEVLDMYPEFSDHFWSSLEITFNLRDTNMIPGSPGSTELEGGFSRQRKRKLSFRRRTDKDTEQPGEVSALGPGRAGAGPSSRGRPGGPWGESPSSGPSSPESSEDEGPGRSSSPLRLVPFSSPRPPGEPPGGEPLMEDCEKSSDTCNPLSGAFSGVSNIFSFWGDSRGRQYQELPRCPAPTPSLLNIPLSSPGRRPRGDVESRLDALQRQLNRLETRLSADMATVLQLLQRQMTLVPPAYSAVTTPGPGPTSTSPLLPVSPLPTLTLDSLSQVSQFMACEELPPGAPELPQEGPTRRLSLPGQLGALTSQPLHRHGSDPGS

CCOC(=O)c1cc(C)n(-c2ccccc2)c1C [OSM-S-31] showed an IC50 of 3.89 µM.

Source: PMC6176658, “Experimentally Validated Pharmacoinformatics Approach to Predict hERG Inhibition Potential of New Chemical Entities” (Frontiers in Pharmacology, 2018)
